Experimental data as given in PMC11035696, “Prospective de novo drug design with deep interactome learning” (Nature Communications, 2024).
Values joined by “and” are separate entries in the source; they are usually repeats but may differ in a detail not shown here. Equal values may be shown once.

Tests used:
ADENOSINE A3 RECEPTOR = ADENOSINE A3 RECEPTOR (Homo sapiens, UniProt P0DMS8); experiment: Safety off-target panel, binding; details: single point
From the text: (§1) Table S9-S12 list all targets, their species, inhibition (%) and assay type for the experiments conducted in the
(§2) off-targets. […] The numbers for mean
(§3) inhibition (%) represent single point measurements.
(§4) off-targets. […] The numbers for
(§5) mean inhibition (%) represent single point measurements.

β1-ADRENOCEPTOR = β1-ADRENOCEPTOR (Homo sapiens, UniProt P08588); experiment: Safety off-target panel, binding; details: single point
From the text: as §1, §2, §3, §4, §5

MUSCARINIC RECEPTOR M1 = MUSCARINIC RECEPTOR M1 (Homo sapiens, UniProt P11229); experiment: Safety off-target panel, binding; details: single point
From the text: as §1, §2, §3, §4, §5

liver X receptor (LXR)α = molecular target: T1, liver X receptor (LXR)α (Homo sapiens, UniProt Q13133); experiment: Nuclear receptor selectivity profiling, hybrid reporter gene assay, LXRα; assay type: cell-based
T1 construct: LXRα (pFA-CMV-hLXRα-LBD[104], 1 μM TO901317); expressed in transfected cells; host or cells: HEK293T
T1 sequence (Q13133 209-447 limits assumed): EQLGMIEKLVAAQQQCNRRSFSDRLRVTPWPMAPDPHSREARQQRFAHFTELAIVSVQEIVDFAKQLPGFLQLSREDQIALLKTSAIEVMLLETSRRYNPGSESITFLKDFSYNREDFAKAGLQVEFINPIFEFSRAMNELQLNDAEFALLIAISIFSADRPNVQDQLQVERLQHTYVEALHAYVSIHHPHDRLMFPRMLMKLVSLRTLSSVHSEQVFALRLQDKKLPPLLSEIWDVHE
Procedure: (§6) PPAR activation was determined in uniform Gal4-hybrid reporter gene assays for the PPARα, PPARγ and PPARδ isoforms in HEK293T cells (German Collection of Microorganisms and Cell Culture GmbH, DSMZ) which were transiently transfected with pFR-Luc (Stratagene, La Jolla, CA, USA; reporter) and pRL-SV40 (Promega, Madison, WI, USA; internal control) and one pFA-CMV-hPPAR-LBD[97] clone, coding for the hinge region and ligand binding domain of the canonical isoform of human PPARα, PPARγ, PPARδ or respectively. Cells were cultured in Dulbecco’s modified Eagle’s medium (DMEM), high glucose supplemented with 10% fetal calf serum (FCS), sodium pyruvate (1 mM), penicillin (100 U ⋅ ml^-1), and streptomycin (100 μg ⋅ ml^-1) at 37 °C and 5% CO2 and seeded in 96-well plates (3 × 10^4 cells per well). After 24 h, medium was changed to Opti-MEM without supplements and cells were transiently transfected using Lipofectamine LTX reagent (Invitrogen) according to the manufacturer’s protocol. Five hours after transfection, cells were incubated with the test compounds in Opti-MEM supplemented with penicillin (100 U ⋅ ml^-1), streptomycin (100 μg ⋅ ml^-1) and 0.1% DMSO for 16 h before luciferase activity was measured using the Dual-Glo Luciferase Assay System (Promega) according to the manufacturer’s protocol on a Tecan Spark luminometer (Tecan Deutschland GmbH, Germany). Firefly luminescence was divided by Renilla luminescence and multiplied by 1000 resulting in relative light units (RLU) to normalize for transfection efficiency and cell growth. Fold activation was obtained by dividing the mean RLU of a test compound by the mean RLU of the untreated control. All samples were tested in at least three biologically independent experiments in duplicates. For dose-response curve fitting and calculation of EC50 values, the equation “[Agonist] versus response (variable slope—four parameters)” was used in GraphPad Prism (version 7.00, GraphPad Software, La Jolla, CA, USA) with fold activation data. The reference agonizts GW7647 (PPARα)[98],[99], pioglitazone (PPARγ)[100],[101] and L165,041 (PPARδ)[102],[103] were used to validate the assays and to monitor assay performance. Nuclear receptor selectivity profiling was performed with corresponding pFA-CMV-hNR-LBD clones and suitable reference agonizts on RARα (pFA-CMV-hRARα-LBD[104], 1 μM tretinoin), LXRα (pFA-CMV-hLXRα-LBD[104], 1 μM TO901317) and RXRα (pFA-CMV-h RXRα-LBD[105], 1 μM Bexarotene).

human PPARδ = molecular target: T2, human PPARδ (Homo sapiens, UniProt Q03181); experiment: Gal4-hybrid reporter gene assay, PPARδ activation; assay type: cell-based
T2 construct: expressed in transfected cells; host or cells: HEK293T
T2 sequence (Q03181 211-439 limits assumed): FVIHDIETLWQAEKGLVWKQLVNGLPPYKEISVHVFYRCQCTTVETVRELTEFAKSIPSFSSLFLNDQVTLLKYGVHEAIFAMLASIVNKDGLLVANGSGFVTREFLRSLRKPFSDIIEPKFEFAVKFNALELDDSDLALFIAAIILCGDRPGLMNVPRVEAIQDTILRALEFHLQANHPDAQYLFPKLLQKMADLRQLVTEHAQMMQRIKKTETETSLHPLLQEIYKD
Procedure: (§7) Compounds 1–3 were characterized in a hybrid reporter gene assay for their agoniztic effect on human nuclear receptors PPARα/γ/δ, RXRα, FXRα, RARα in HEK293T cells. Compound 1 was tested in an isothermal titration calorimetry (ITC) assay to measure direct binding affinity to the ligand-binding domain of PPARγ. ADME properties were measured in standardized assays at Roche.
PPAR activation was determined in uniform Gal4-hybrid reporter gene assays for the PPARα, PPARγ and PPARδ isoforms in HEK293T cells (German Collection of Microorganisms and Cell Culture GmbH, DSMZ) which were transiently transfected with pFR-Luc (Stratagene, La Jolla, CA, USA; reporter) and pRL-SV40 (Promega, Madison, WI, USA; internal control) and one pFA-CMV-hPPAR-LBD[97] clone, coding for the hinge region and ligand binding domain of the canonical isoform of human PPARα, PPARγ, PPARδ or respectively. Cells were cultured in Dulbecco’s modified Eagle’s medium (DMEM), high glucose supplemented with 10% fetal calf serum (FCS), sodium pyruvate (1 mM), penicillin (100 U ⋅ ml^-1), and streptomycin (100 μg ⋅ ml^-1) at 37 °C and 5% CO2 and seeded in 96-well plates (3 × 10^4 cells per well). After 24 h, medium was changed to Opti-MEM without supplements and cells were transiently transfected using Lipofectamine LTX reagent (Invitrogen) according to the manufacturer’s protocol. Five hours after transfection, cells were incubated with the test compounds in Opti-MEM supplemented with penicillin (100 U ⋅ ml^-1), streptomycin (100 μg ⋅ ml^-1) and 0.1% DMSO for 16 h before luciferase activity was measured using the Dual-Glo Luciferase Assay System (Promega) according to the manufacturer’s protocol on a Tecan Spark luminometer (Tecan Deutschland GmbH, Germany). Firefly luminescence was divided by Renilla luminescence and multiplied by 1000 resulting in relative light units (RLU) to normalize for transfection efficiency and cell growth. Fold activation was obtained by dividing the mean RLU of a test compound by the mean RLU of the untreated control. […]

P-glycoprotein (Pgp) = P-glycoprotein (Pgp) efflux assay; assay type: in vitro ADME; details: mouse; for Papp: PAMPA, read-out: PgP Transport mouse permeability; for efflux ratio: not told, read-out: PgP Transport mouse apical efflux ratio
Procedure: as §7
SI11Absorption Distribution Metabolism and Excretion and Toxicity Data
To assess the drug-like characteristics of the newly designed PPAR modulators, a series of tests were conducted covering various aspects of absorption, distribution, metabolism, and excretion (ADME) properties. Specifically, these assessments included the parallel artificial membrane permeability assay (PAMPA) with permeation co- […]
efficients ([…]), LogD measurements, microsomal clearance, hepatocyte clearance, P-glycoprotein (Pgp) efflux ratio and binding and the unbound free fraction. […]
Table S14: Absorption distribution metabolism and excretion (ADME) properties of compounds 1 and 2. The […]
values for […], LogD, protein binding, P-glycoprotein (Pgp) efflux ratio and permeability, and hepato-cyte clearance are presented as the mean and standard deviation, with a sample size of N = 3, i.e., 3 technical replicates each. The values for microsomal clearance and CYP-inhibition represent single point measurements. […]
PgP Transport mouse apical efflux ratio - 1.6 1.2
PgP Transport mouse permeability (nm·sec−1) - 15 60 […]

human PPARγ = molecular target: T3, human PPARγ (Homo sapiens, UniProt P37231); experiment: Gal4-hybrid reporter gene assay, PPARγ activation; assay type: cell-based; details: PPARγ, compounds 1 and 2, Table 4; read-out: pEC50 (converted)
T3 construct: expressed in transfected cells; host or cells: HEK293T
T3 sequence (P37231 238-503 limits assumed): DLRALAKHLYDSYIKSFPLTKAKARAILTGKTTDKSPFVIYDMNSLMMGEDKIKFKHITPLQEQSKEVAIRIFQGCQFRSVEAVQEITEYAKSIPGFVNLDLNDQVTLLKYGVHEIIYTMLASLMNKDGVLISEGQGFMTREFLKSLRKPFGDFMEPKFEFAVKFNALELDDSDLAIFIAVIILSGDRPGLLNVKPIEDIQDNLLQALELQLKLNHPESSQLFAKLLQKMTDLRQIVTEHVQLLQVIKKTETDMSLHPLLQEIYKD
Procedure: as §7, §6

MUSCARINIC RECEPTOR M1, sequence (P11229 whole entry): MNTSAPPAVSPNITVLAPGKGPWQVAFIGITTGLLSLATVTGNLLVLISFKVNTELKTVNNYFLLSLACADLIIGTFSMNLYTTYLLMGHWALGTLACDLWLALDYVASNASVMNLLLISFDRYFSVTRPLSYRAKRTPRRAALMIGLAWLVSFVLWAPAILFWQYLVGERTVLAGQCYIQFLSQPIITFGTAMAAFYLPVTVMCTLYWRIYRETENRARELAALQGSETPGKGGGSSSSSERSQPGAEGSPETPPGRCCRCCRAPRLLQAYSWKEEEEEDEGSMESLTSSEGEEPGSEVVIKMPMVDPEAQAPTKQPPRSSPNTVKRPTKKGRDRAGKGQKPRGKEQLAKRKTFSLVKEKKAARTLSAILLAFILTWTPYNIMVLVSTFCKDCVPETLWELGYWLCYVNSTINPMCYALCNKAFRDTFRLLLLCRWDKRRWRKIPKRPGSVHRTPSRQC
ADENOSINE A3 RECEPTOR, sequence (P0DMS8 whole entry): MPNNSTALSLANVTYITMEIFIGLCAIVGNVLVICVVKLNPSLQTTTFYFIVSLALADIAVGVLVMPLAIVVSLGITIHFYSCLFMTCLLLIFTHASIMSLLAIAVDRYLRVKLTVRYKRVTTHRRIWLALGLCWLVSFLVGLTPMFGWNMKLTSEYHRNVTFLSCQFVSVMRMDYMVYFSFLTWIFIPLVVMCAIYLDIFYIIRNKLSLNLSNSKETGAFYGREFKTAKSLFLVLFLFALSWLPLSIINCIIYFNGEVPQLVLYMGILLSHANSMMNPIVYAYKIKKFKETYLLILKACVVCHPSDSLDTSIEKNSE
UniProt P08588, sequence (P08588 whole entry): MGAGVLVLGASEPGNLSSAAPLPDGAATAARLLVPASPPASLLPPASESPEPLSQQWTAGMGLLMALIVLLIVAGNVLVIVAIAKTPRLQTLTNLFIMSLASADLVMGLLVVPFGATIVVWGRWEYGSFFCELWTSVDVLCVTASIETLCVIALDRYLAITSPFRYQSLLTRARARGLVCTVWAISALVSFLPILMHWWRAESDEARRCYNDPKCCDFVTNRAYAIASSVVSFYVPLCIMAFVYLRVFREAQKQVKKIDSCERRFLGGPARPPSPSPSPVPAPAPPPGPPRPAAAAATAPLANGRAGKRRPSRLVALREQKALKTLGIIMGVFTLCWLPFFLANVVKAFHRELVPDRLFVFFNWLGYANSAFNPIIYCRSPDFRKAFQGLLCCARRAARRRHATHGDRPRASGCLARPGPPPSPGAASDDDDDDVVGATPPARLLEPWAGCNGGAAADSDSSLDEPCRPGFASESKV

SMILES	inhibition at 10 µM (ADENOSINE A3 RECEPTOR) [%]	inhibition at 10 µM (β1-ADRENOCEPTOR) [%]	inhibition at 10 µM (MUSCARINIC RECEPTOR M1) [%]	LXRα reporter activation, replicate values (DMSO ctrl = 1,000) (liver X receptor (LXR)α; 3 µM)	LXRα reporter activation, replicate values (DMSO ctrl = 1,000) (liver X receptor (LXR)α; 10 µM)	EC50 (human PPARδ; HEK293T cells) [nM]	Papp (P-glycoprotein (Pgp)) [×10⁻⁶ cm/s]	efflux ratio (P-glycoprotein (Pgp))	EC50 (human PPARγ) [nM]	activity on PPARδ (human PPARδ; result in words)
Cc1nnc(-c2ccc(OCCCOc3ccc(CCC(=O)O)c(F)c3)c(F)c2)s1 [Compound 1]	9	0.7	8.4	1,029 and 1,028 and 1,248	3,397 and 1,447 and 1,490	240 ± 50	1.5	1.6	1480	–
COc1ccc(Oc2ccc3ncn(CCOc4ccc(CCC(=O)O)cc4)c3c2)cc1 [Compound 2]	17.1	6.9	-0.2	0,566 and 1,566 and 1,418	1,976 and 2,098 and 2,121	–	6	1.2	2290	no discernible impact
